# Assay results: ChEMBL document CHEMBL5137047, “Design, synthesis and anti-inflammatory evaluation of aloe-emodin derivatives as potential modulators of Akt, NF-κB and JNK signaling pathways” (Eur J Med Chem, 2022)
# Calls of active or inactive are those of the source. The rule behind the calls is not given here.
# Columns and labels:
# [1] = system: RAW264.7; assay: Antiinflammatory activity against mouse RAW264.7 cells assessed as inhibition of LPS-induced nitric oxide production at 5 uM measured after 24 hrs; assay type: functional, cell-based
# [2] = system: RAW264.7; assay: Antiinflammatory activity against mouse RAW264.7 cells assessed as inhibition of LPS-induced nitric oxide production measured after 24 hrs; assay type: functional, cell-based; conditions: RAW264.7, 24 h
# [3] = system: RAW264.7; assay: Cytotoxicity against mouse RAW264.7 cells assessed as reduction in cell viability at upto 25 uM measured after 24 hrs by MTT assay; assay type: toxicity, cell-based; conditions: raw264.7, 24 h
# [4] = system: RAW264.7; assay: Inhibition of TNF-alpha production in LPS-stimulated mouse RAW264.7 cells measured after 24 hrs by ELISA; assay type: functional, cell-based; conditions: dose 3.125-12.5 µM, DDE = dose-dependent effect
# [5] = system: RAW264.7; assay: Inhibition of IL-1beta production in LPS-stimulated mouse RAW264.7 cells measured after 24 hrs by ELISA; assay type: functional, cell-based; conditions: dose 3.125-12.5 µM, DDE = dose-dependent effect
# [6] = system: RAW264.7; assay: Inhibition of IL-6 production in LPS-stimulated mouse RAW264.7 cells measured after 24 hrs by ELISA; assay type: functional, cell-based; conditions: dose 3.125-12.5 µM, DDE = dose-dependent effect
# [7] = system: RAW264.7; assay: Inhibition of PGE2 production in LPS-stimulated mouse RAW264.7 cells measured after 24 hrs by ELISA; assay type: functional, cell-based; conditions: dose 3.125-12.5 µM, DDE = dose-dependent effect
# [8] = system: RAW264.7; assay: Inhibition of IL-1beta mRNA expression in LPS-stimulated mouse RAW264.7 cells measured after 24 hrs by qRT-PCR analysis; assay type: functional, cell-based; conditions: dose 3.125-12.5 µM, DDE = dose-dependent effect
# [9] = system: RAW264.7; assay: Inhibition of IL-6 mRNA expression in LPS-stimulated mouse RAW264.7 cells measured after 24 hrs by qRT-PCR analysis; assay type: functional, cell-based; conditions: dose 3.125-12.5 µM, DDE = dose-dependent effect
# [10] = system: RAW264.7; assay: Inhibition of COX-2 mRNA expression in LPS-stimulated mouse RAW264.7 cells measured after 24 hrs by qRT-PCR analysis; assay type: functional, cell-based; conditions: dose 3.125-12.5 µM, DDE = dose-dependent effect
# [11] = system: RAW264.7; assay: Downregulation of iNOS protein expression in LPS-stimulated mouse RAW264.7 cells measured after 24 hrs by Western blot analysis; assay type: functional, cell-based; conditions: dose 3.125-12.5 µM
# [12] = system: RAW264.7; assay: Downregulation of COX-2 protein expression in LPS-stimulated mouse RAW264.7 cells measured after 24 hrs by Western blot analysis; assay type: functional, cell-based; conditions: dose 3.125-12.5 µM
# [13] = system: RAW264.7; assay: Inhibition of LPS-induced NF-kappaB activation in mouse RAW264.7 cells assessed as upregulation of IkappaBalpha protein expression at 3.125 to 12.5 uM preincubated for 24 hrs followed by LPS addition and measured after 30 mins by Western blot analysis; assay type: cell-based; conditions: dose 3.125-12.5 µM, time 24.5 hrs
# [14] = system: RAW264.7; assay: Inhibition of LPS-induced NF-kappaB activation in mouse RAW264.7 cells assessed as reduction in p65 expression in nucleus at 3.125 to 12.5 uM preincubated for 24 hrs followed by LPS addition and measured after 30 mins by Western blot analysis; assay type: cell-based; conditions: dose 3.125-12.5 µM
# [15] = system: RAW264.7; assay: Inhibition of LPS-induced NF-kappaB activation in mouse RAW264.7 cells assessed as reduction in translocation of p65 from cytoplasm to nucleus at 3.125 to 12.5 uM preincubated for 24 hrs followed by LPS addition and measured after 30 mins by immunofluorescence analysis; assay type: cell-based; conditions: dose 3.125-12.5 µM
# [16] = system: RAW264.7; assay: Inhibition of Akt phosphorylation in LPS-stimulated mouse RAW264.7 cells at 3.125 to 12.5 uM measured after 24 hrs by Western blot analysis; assay type: cell-based; conditions: dose 3.125-12.5 µM
# [17] = biological target: c-Jun N-terminal kinase (Mus musculus) (UniProt Q91Y86+Q9WTU6+Q61831); assay: Inhibition of JNK phosphorylation in LPS-induced mouse RAW264.7 cells measured after 24 hrs by Western blot analysis; assay type: cell-based; conditions: dose 3.125-12.5 µM, DDE = dose-dependent effect
# c-Jun N-terminal kinase (Mus musculus), sequence (Q61831 whole entry, looked up): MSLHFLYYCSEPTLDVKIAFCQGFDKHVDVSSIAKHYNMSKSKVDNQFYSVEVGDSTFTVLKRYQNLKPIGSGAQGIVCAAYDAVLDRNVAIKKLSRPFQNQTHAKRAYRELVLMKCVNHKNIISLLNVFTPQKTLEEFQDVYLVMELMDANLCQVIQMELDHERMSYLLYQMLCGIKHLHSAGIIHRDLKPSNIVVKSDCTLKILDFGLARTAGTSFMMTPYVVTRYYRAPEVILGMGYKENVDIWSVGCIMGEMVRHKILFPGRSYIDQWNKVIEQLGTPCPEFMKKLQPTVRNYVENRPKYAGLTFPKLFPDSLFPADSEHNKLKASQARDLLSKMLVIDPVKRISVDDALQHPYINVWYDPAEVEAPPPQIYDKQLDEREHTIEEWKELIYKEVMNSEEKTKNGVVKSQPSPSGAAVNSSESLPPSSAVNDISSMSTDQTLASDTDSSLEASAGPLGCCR
# c-Jun N-terminal kinase (Mus musculus), sequence (Q91Y86 whole entry, looked up): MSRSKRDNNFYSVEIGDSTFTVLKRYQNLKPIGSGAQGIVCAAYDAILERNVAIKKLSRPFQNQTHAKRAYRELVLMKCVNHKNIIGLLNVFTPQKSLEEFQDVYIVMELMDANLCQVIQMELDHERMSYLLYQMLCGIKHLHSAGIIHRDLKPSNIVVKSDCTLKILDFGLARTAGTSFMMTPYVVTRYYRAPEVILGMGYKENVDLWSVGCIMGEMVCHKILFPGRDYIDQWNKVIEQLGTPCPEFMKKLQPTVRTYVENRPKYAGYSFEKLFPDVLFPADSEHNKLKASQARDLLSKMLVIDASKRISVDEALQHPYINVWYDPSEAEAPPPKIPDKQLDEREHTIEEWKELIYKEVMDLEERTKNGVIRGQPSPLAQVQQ
# c-Jun N-terminal kinase (Mus musculus), sequence (Q9WTU6 whole entry, looked up): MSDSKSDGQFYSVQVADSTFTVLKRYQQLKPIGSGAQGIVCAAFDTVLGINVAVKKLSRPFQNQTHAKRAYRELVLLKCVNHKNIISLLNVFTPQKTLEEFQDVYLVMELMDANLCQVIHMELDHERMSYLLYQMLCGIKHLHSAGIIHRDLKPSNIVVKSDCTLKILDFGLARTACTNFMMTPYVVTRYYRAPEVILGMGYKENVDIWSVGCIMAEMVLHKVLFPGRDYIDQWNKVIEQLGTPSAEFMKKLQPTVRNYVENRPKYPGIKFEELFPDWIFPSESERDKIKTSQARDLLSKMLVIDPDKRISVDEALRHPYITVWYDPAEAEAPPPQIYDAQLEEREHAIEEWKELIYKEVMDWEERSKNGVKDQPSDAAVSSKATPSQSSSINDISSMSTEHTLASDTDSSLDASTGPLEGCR
Structure (SMILES),NO production inhibition (active/inactive call) [1],other results
CC(=O)Oc1cccc2c1C(=O)c1c(OC(C)=O)cc(COC(=O)CN3CCOCC3)cc1C2=O,Active,–
O=C(CN1CCSCC1)OCc1cc(O)c2c(c1)C(=O)c1cccc(O)c1C2=O,Active,–
CC(=O)Oc1cccc2c1C(=O)c1c(OC(C)=O)cc(COC(=O)CN3CCSCC3)cc1C2=O,Active,–
CC(C)C(=O)Oc1cccc2c1C(=O)c1c(OC(=O)C(C)C)cc(COC(=O)CN3CCOCC3)cc1C2=O,Active,–
CCCN(C)CC(=O)OCc1cc(O)c2c(c1)C(=O)c1cccc(O)c1C2=O,Active,–
CC(=O)Oc1cccc2c1C(=O)c1c(OC(C)=O)cc(COC(=O)CN3CCCCC3)cc1C2=O,Active,–
CC(=O)Oc1cccc2c1C(=O)c1c(OC(C)=O)cc(COC(=O)CN3CCN(c4ccccc4)CC3)cc1C2=O,Active,–
O=C(CN1CCN(c2ccccc2)CC1)OCc1cc(O)c2c(c1)C(=O)c1cccc(O)c1C2=O,Active,–
O=C(CN1CCOCC1)OCc1cc(OC(=O)c2ccccc2)c2c(c1)C(=O)c1cccc(OC(=O)c3ccccc3)c1C2=O,Active,–
CC(=O)Oc1cccc2c1C(=O)c1c(OC(C)=O)cc(COC(=O)CN3CCN(c4ccc(F)cc4)CC3)cc1C2=O,Active,–
O=C(CN1CCCC1)OCc1cc(O)c2c(c1)C(=O)c1cccc(O)c1C2=O,Active,–
O=C(CN1CCN(c2ccc(F)cc2)CC1)OCc1cc(O)c2c(c1)C(=O)c1cccc(O)c1C2=O,Active,–
O=C(CN1CCOCC1)OCc1cc(O)c2c(c1)C(=O)c1cccc(O)c1C2=O,Active,–
CN1CCN(CC(=O)OCc2cc(O)c3c(c2)C(=O)c2cccc(O)c2C3=O)CC1,–,IC50 [2]: 3.15 µM; Activity [3]: Non-Toxic; inhibition [4]: Dde; inhibition [5]: Dde; inhibition [6]: Dde; inhibition [7]: Dde; inhibition [8]: Dde; inhibition [9]: Dde; inhibition [10]: Dde; Activity [11]: Active; Activity [12]: Active; inhibition [13]: Active; inhibition [14]: Active; inhibition [15]: Active; inhibition [16]: Active; inhibition [17]: Dde
CCN(CC)CC(=O)OCc1cc(O)c2c(c1)C(=O)c1cccc(O)c1C2=O,Active,–
O=C(CN1CCC(O)CC1)OCc1cc(O)c2c(c1)C(=O)c1cccc(O)c1C2=O,Active,–
O=C(CN1CCCCC1)OCc1cc(O)c2c(c1)C(=O)c1cccc(O)c1C2=O,Active,–
CC(=O)Oc1cccc2c1C(=O)c1c(OC(C)=O)cc(COC(=O)CN3CCC(OC(C)=O)CC3)cc1C2=O,Active,–
CC(C)N(C)CC(=O)OCc1cc(O)c2c(c1)C(=O)c1cccc(O)c1C2=O,Active,–
